Test results as given in patent publication US6211244A, “Calcium receptor-active compounds” (priority 1995, dated 2001).

Key:
human calcium receptor = target: T1, human calcium receptor (Homo sapiens, UniProt P41180, R990G); assay: increases in [Ca^2+ ]i in HEK-293 cells expressing the human calcium receptor (fura-2 loaded HEK 293/pHuPCaR4.0 cells), % activity; type: cell-based
T1 construct: expressed in transfected cells; host or cells: HEK 293
T1 sequence (P41180 20-1078 R990G): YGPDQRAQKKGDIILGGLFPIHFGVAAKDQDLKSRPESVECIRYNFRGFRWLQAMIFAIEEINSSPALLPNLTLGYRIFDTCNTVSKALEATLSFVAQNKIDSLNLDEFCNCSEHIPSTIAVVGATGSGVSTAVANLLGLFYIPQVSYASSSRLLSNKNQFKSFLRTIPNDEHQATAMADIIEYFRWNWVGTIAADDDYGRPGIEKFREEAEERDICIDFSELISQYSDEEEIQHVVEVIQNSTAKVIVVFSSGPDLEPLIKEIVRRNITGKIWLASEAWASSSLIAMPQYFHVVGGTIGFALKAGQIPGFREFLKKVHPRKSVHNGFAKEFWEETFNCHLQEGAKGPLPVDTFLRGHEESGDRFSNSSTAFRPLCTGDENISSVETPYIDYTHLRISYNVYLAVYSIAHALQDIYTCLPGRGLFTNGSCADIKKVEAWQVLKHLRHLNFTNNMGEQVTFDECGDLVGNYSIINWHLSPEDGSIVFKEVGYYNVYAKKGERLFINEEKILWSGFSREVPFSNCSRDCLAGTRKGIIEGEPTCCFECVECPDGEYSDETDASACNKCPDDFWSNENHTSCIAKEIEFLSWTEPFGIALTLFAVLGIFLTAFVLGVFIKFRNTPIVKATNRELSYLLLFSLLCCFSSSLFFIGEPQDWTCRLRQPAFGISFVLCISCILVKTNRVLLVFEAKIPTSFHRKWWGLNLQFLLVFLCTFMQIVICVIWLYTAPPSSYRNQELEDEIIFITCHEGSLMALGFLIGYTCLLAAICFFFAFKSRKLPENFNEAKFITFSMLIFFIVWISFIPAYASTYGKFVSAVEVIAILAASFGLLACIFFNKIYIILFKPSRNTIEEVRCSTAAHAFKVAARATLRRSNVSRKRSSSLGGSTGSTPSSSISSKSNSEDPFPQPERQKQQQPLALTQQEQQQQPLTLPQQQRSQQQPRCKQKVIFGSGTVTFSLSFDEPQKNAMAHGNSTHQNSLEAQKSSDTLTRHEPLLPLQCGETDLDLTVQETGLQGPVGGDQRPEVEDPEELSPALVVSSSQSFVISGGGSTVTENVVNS

[1] = tested on: Parathyroid Cell Calcium Receptor; assay: EC50 in parathyroid cells or HEK 293/pHuPCaR4.0 cells loaded with fura-2; type: cell-based, calves and humans; settings: parathyroid cells or HEK 293/pHuPCaR4.0, fura-2; cell type not given per value
Description: This section describes procedures used to obtain parathyroid cells from calves and humans, and to use the parathyroid cells to measure calcium receptor activity.
Human parathyroid glands, were obtained from patients undergoing surgical removal of parathyroid tissue for primary or uremic hyperparathyroidism (uremic HPT), and were treated similarly to bovine tissue.
Glands were trimmed of excess fat and connective tissue and then minced with fine scissors into cubes approximately 2-3 mm on a side. Dissociated parathyroid cells were prepared by collagenase digestion and then purified by centrifugation in Percoll buffer.
Primary culture also has the advantage that cells can be labeled with isotopes to near isotopic equilibrium, as is necessary for studies involving measurements of inositol phosphate metabolism.
ITS+ is a premixed solution containing insulin, transferrin, selenium, and bovine serum albumin (BSA)-linolenic acid (Collaborative Research, Bedford, Mass.). The cells were then transferred to plastic flasks (75 or 150 cm^2; Falcon) and incubated overnight at 37° C. in a humid atmosphere of 5% CO2. No serum is added to these overnight cultures, since its presence allows the cells to attach to the plastic, undergo proliferation, and dedifferentiate.
The cells were then pelleted, resuspended in the same buffer, but lacking the ester, and incubated a further 15 minutes at 37° C. The cells were subsequently washed twice with PCB containing 0.5 mM CaCl2 and 0.5% BSA and maintained at room temperature (about 20° C.). Immediately before use, the cells were diluted five-fold with prewarmed 0.5 mM CaCl2 -PCB to obtain a final BSA concentration of 0.1%. The concentration of cells in the cuvette used for fluorescence recording was 1-2×10^6 /ml.
The fluorescence of indicator-loaded cells was measured at 37° C. in a spectrofluorimeter (Biomedical Instrumentation Group, University of Pennsylvania, Philadelphia, Pa.) equipped with a thermostated cuvette holder and magnetic stirrer using excitation and emission wavelengths of 340 and 510 nm, respectively. […] To correct the calibration for dye leakage, cells were placed in the cuvette and stirred at 37° C. for 2-3 minutes. The cell suspension was then removed, the cells pelleted, and the supernatant returned to a clean cuvette. […] This estimate was subtracted from the apparent Fmin.
HEK 293 cells transfected with pHuPCaR4.0 were loaded with fura-2 by incubating the cells in Dulbecco's modified Eagle's media buffered with 20 mM HEPES containing about 5 μM […] for one hour at room temperature. Cell were then rinsed with Hank's balanced salt solution buffered with 20 mM HEPES containing 1 mM CaCl2 and 1 mM MgCl2. Compounds to be tested were then added to the cells and fluorescence was measured (excitation and emission wavelengths of 340 and 510 nm, respectively).

[2] = tested on: human parathyroid cell calcium receptor; assay: stimulation of calcium-activated chloride currents in Xenopus oocytes injected with calcium receptor cRNA; type: cell-based; settings: calcium-activated chloride current
Description: Representative cDNA inserts for both size classes were subcloned into the plasmid vector pBluescript SK. Linearization followed by in vitro transcription using T7 RNA polymerase produced cRNA transcripts. The cRNA transcripts were injected into Xenopus oocytes (150 ng/μl RNA; 50 nl/oocyte) for functional analysis. Following incubation periods of 2-4 days, the oocytes were assayed for the presence of functional calcium receptors. Both clone types gave rise to functional calcium receptors as assessed by the stimulation of calcium-activated chloride currents upon addition of appropriate calcium receptor agonists. […] Thus, both clones encode a functional, human parathyroid cell calcium receptor.
In addition, pHuPCaR4.0 encodes glutamine (Gln) at aa#925 and glycine (Gly) at position 990 whereas pHuPCaR5.2 encodes arg (Arg) at both equivalent positions. The human CaR gene encodes for Gln and Arg, respectively, at these positions. The difference between the pHuPCaR4.0 cDNA compared to human DNA appears to represent a true sequence polymorphism within the human population while the single base change in pHuPCaR5.2 probably reflects a mutation which occurred during its cloning. […] However, it is possible that these two receptor isoforms are functionally and/or pharmacologically distinct.

[3] = tested on: HuPCaR 5.2 calcium receptor; assay: fluorescence ([Ca^2+ ]i) in HEK 293 cells transfected with Cep4B containing the HuPCaR 5.2 insert; type: cell-based, human; settings: Ca^2+ 10 mM, Mg^2+ 20 mM; 37° C.
Description: Clonal cell lines that stably express the two human and the bovine calcium receptors have been isolated. Calcium receptor cDNAs were subcloned in two different, commercially available expression vectors; pMSG (obtained from Pharmacia) and Cep4B (obtained from Invitrogen). The first vector contains the selectable marker gene for xanthine-guanine phosphoribosyltransferase (gpt) allowing stably transfected cells to overcome the blockade of the purine biosynthetic pathway imposed by addition of 2 μg/ml aminopterin and 25 μg/ml mycophenolic acid. The second vector encodes a gene conferring resistance to the antibiotic hygromycin (used at 200 μg/ml). […]
Cells obtained from the pool of hygromycin selected HEK 293 cells transfected with Cep4B containing the HuPCaR 5.2 insert were plated on collagen coated Aklar squares which had been placed into individual wells of 12-well tissue culture plates. […] Measurements of fluorescence in response to calcium receptor agonists were performed at 37° C. in a spectrofluorimeter using excitation and emission wavelengths of 340 and 510 nm, respectively. For signal calibration, Fmax was determined after addition of ionomycin (40 μM) and the apparent Fmin was determined by addition of 0.3 M EGTA, 2.5 M Tris-HCl; pH 10.

calcium receptor = settings: cited from earlier work
human subjects = assay: pharmacological activity in human subjects after oral doses; type: in vivo; settings: 10-400 mg oral doses
From the text: Proper dosing can also be carried out using standard techniques. […] Thus, the glucuronide conjugate of 17Q may be exerting some beneficial effect.

Compound | % activity (human calcium receptor; 33 ng/mL) | % activity (human calcium receptor; 330 ng/mL) | EC50 [1] | activation of oocyte-expressed calcium receptor [2] | increases in [Ca^2+ ]i [3] | binding site on the calcium receptor (calcium receptor) | pharmacological activity in human subjects (human subjects)
COc1cccc(C(C)NC(C)c2cccc3ccccc23)c1 (centres unmarked) [Compound 14Y] | 73% | 109% | 380 nM | – | – | – | –
C[C@@H](NCc1ccc(C(C)(C)C)cc1)c1cccc2ccccc12 [Compound 15G] | 80% | 113% | ~500 nM | – | – | – | –
COc1ccc(CN[C@H](C)c2cccc3ccccc23)cc1C [Compound 16Q] | 88% | 110% | 40 nM | – | – | – | –
COc1ccc(CN[C@H](C)c2cccc3ccccc23)cc1F [Compound 16T] | 88% | 97% | 40 nM | – | – | – | –
Cc1ccc(CN[C@H](C)c2cccc3ccccc23)cc1C [Compound 16V] | 102% | 114% | < 130 nM | – | – | – | –
CSc1ccc(CN[C@H](C)c2cccc3ccccc23)cc1 [Compound 16X] | 96% | 111% | 100 nM | – | – | – | –
COc1ccc([C@@H](C)N[C@H](C)c2cccc3ccccc23)cc1C.Cl [Compound 17P, (R)-N-(1-(4-Methoxy-3-methylphenyl)ethyl)-(R)-1-(1-naphthyl)ethylamine hydrochloride] | 86% | 101% | 40 nM | – | – | – | –
COc1ccc([C@@H](C)N[C@H](C)c2cccc3ccccc23)cc1Cl [Compound 17X, (R,R)-N-(1-Ethyl-4'-methoxy-3'-chlorophenyl)-1-(1-naphthylethyl) amine] | 93% | 105% | 20 nM | – | – | – | –
COc1ccc(CCCN[C@H](C)c2cccc(OC)c2)cc1 [Compound 20I] | 52% | 87% | > 1000 nM | – | – | – | –
COc1cccc([C@@H](C)NCCCc2ccc(OC)c(OC)c2)c1 [Compound 20J] | 48% | 80% | > 3000 nM | – | – | – | –
COc1cccc([C@@H](C)N[C@H](C)CCc2ccccc2)c1 [Compound 21D, (R,R)-N-(4-phenyl-2-butyl)-1-(3-methoxyphenyl)ethylamine] | 75% | 104% | 3000 nM | – | – | – | –
C[C@H](CCc1ccccc1)N[C@H](C)c1cccc2ccccc12 [Compound 21F, (R,R)-N-(4-phenyl-2-butyl)-1-(1-naphthyl)etbylamine] | 85% | 109% | 380 nM | – | – | – | –
C[C@@H](CCc1ccccc1)N[C@H](C)c1cccc2ccccc12 [Compound 21G] | 63% | 88% | 1100 nM | – | – | – | –
COc1cccc([C@@H](C)NCCCc2ccccc2)c1 [NPS R-467] | – | – | – | activated the oocyte-expressed receptor at about the same concentrations known to be effective for the native parathyroid cell receptor | Robust increases in [Ca^2+ ]i | binds to the calcium receptor at a different site (i.e., an allosteric site) than extracellular calcium | –
COc1cccc([C@@H](C)NCCCc2ccccc2Cl)c1 [NPS R-568, reference compound] | 69% | 95% | 600 nM | activated the oocyte-expressed receptor at about the same concentrations known to be effective for the native parathyroid cell receptor | – | – | showed pharmacological activity in human subjects
